Source: US20240018147A1, “SALT OF COMPOUND FOR DEGRADING BTK, CRYSTAL FORM THEREOF, AND USE THEREOF IN MEDICINE” (HAISCO PHARMACEUTICALS PTE. LTD., priority 2020, published 2024)
In brackets after ≈: the same amount, converted by molar mass.

Key:
[1] = Crystal slurrying competition experiment of crystal forms; format: physicochemical; conditions: room temperature; for relative stability of crystal forms from competition experiments: conclusion in words
Experimental: 6.2. Competitive experiments of crystal forms I, II and III of compound 1 were performed at room temperature to investigate the stability of the crystal forms in isopropyl acetate and a water/acetonitrile (v/v=1:1) solvent, and Competitive experiments of the crystal forms I and II of compound 3 were performed at room temperature to investigate the stability of the crystal forms in an ethanol/water (v/v=1:1) solvent and an acetone/water (v/v=1:1) solvent.

[2] = Pharmacokinetic test of dogs; format: in vivo; conditions: Beagle dogs; for Having bioavailability or not / AUC(0-t): i.g. (10 mg/kg); for AUC(0-t): male, dog, po, plasma
Experimental: Experimental objective: in this experiment, a single dose of each test compound was administered to Beagle dogs intravenously and intragastrically, the concentrations of the test compounds in plasma of dogs were measured, and the pharmacokinetic characteristics and bioavailability of the test compounds in dogs were evaluated.
Experimental animal: male Beagle dogs (about 8-11 kg, […], 6 dogs/compound), purchased from Beijing Marshall Biotechnology Co. Ltd.
The animals were fasted but with water available for 14 to 18 hours one day before administration, and were fed 4 hours after administration.
Sampling: before and after administration, 1.0 ml of blood was taken from jugular veins, and placed in an EDTAK2 centrifuge tube. Centrifugation was carried out at 5000 rpm at 4° C. for 10 m, and the plasma was collected.
Time points for plasma collection in G1& G2 groups: 0, 5 min, 15 min, 30 mi 1 h, 2 h, 4 h, 6 h, 8 h, 10 h, […] and 24 h.
Before analysis and detection, all samples were stored at −80° C. The samples were detected by using HPLC-MS/MS.

[3] = Solubility in water at 25° C.; format: physicochemical
Experimental: 7. Solubility Data in Water at 25° C.

[4] = Chemical stability at high temperature (40° C.) and high humidity (RH 92.5%), purity by HPLC; format: physicochemical; conditions: for Purity by HPLC, 0 day: 0 day (initial); for chemical stability: 40° C. and RH 92.5%, purity by HPLC, conclusion in words; for Purity by HPLC, 92.5% RH 30 days: high humidity 92.5% RH; for Purity by HPLC, 40° C. 30 days: high temperature 40° C.
Experimental: Samples were taken and tested at high temperature (40° C.) and under high humidity (RH 92.5%) respectively. The purity (represented by a percentage) was detected by HPLC.
With regard to methods for preparing test solutions and conditions for detecting purity by HPLC, reference was made to Tables 13, 14 and 15.

[5] = Stability of crystal form of compound 1 and compound 3 (XRD); format: physicochemical; conditions: conclusion in words
Source text: 6.1. Stability of crystal form of compound 1 and compound 3.

[6] = listed as Amorphous form of compound 1
[7] = listed as Crystal form III of compound 1

Row | Compound | improvement of solubility as compared with compound 1 [3] | solubility [3] | Having bioavailability or not [2] | increase of oral exposure amount as compared with compound 1 [2] | AUC(0-t) [2] | chemical stability [4] | also measured
1 | Nc1ncnc2c1c(-c1ccc(Oc3ccccc3)cc1)nn2C1CCN(C2CN(C3CN(c4ccc5c(c4)C(=O)N(C4CCC(=O)NC4=O)C5=O)C3)C2)CC1.O=C(O)/C=C\C(=O)O.O=C(O)/C=C\C(=O)O (stereo not shown) | – | – | – | – | – | – | Experimental XRD result after crystal slurrying competition ([1]; acetone/water (v/v = 1:1), 3 days): Crystal form I; Experimental XRD result after crystal slurrying competition ([1]; ethanol/water (v/v = 1:1), 3 days): Crystal form I
2 | Nc1ncnc2c1c(-c1ccc(Oc3ccccc3)cc1)nn2C1CCN(C2CN(C3CN(c4ccc5c(c4)C(=O)N(C4CCC(=O)NC4=O)C5=O)C3)C2)CC1 (stereo not shown) [5-[3-[3-[4-[4-amino-3-(4-phenoxyphenyl)pyrazolo[3,4-d]pyrimidin-1-yl]-1-piperidyl]azetidin-1-yl]azetidin-1-yl]-2-(2,6-dioxo-3-piperidyl)isoindoline-1,3-dione] | – | – | – | – | – | – | Experimental XRD result after crystal slurrying competition ([1]; isopropyl acetate, 2 days): Crystal form III; Experimental XRD result after crystal slurrying competition ([1]; water/acetonitrile (v/v = 1:1), 2 days): Crystal form III
3 | Nc1ncnc2c1c(-c1ccc(Oc3ccccc3)cc1)nn2C1CCN(C2CN(C3CN(c4ccc5c(c4)C(=O)N(C4CCC(=O)NC4=O)C5=O)C3)C2)CC1 (stereo not shown) [Compound 1, 5-[3-[3-[4-[4-amino-3-(4-phenoxyphenyl)pyrazolo[3,4-d]pyrimidin-1-yl]-1-piperidyl]azetidin-1-yl]azetidin-1-yl]-2-(2,6-dioxo-3-piperidyl)isoindoline-1,3-dione] | – | – | – | – | – | – | oral bioavailability in dogs ([2]; intragastric vs intravenous, conclusion in words): a certain level of oral bioavailability; solubility in water ([3]; conclusion in words): a certain level of solubility
4 | Nc1ncnc2c1c(-c1ccc(Oc3ccccc3)cc1)nn2C1CCN(C2CN(C3CN(c4ccc5c(c4)C(=O)N(C4CCC(=O)NC4=O)C5=O)C3)C2)CC1.O=C(O)C[C@H](O)C(=O)O [Compound 4, 5-[3-[3-[4-[4-amino-3-(4-phenoxyphenyl)pyrazolo[3,4-d]pyrimidin-1-yl]-1-piperidyl]azetidin-1-yl]azetidin-1-yl]-2-(2,6-dioxo-3-piperidyl)isoindoline-1,3-dione L-malate] | more than 15 times | 158 µg/mL | – | – | – | – | –
5 | Nc1ncnc2c1c(-c1ccc(Oc3ccccc3)cc1)nn2C1CCN(C2CN(C3CN(c4ccc5c(c4)C(=O)N(C4CCC(=O)NC4=O)C5=O)C3)C2)CC1.O=C(O)CC(O)(CC(=O)O)C(=O)O (stereo not shown) [Compound 5, 5-[3-[3-[4-[4-amino-3-(4-phenoxyphenyl)pyrazolo[3,4-d]pyrimidin-1-yl]-1-piperidyl]azetidin-1-yl]azetidin-1-yl]-2-(2,6-dioxo-3-piperidyl)isoindoline-1,3-dione citrate] | more than 15 times | 166 µg/mL | Yes | more than 2 times | 59.5 ± 21 ng·h/mL | relatively good chemical stability | Purity by HPLC, 0 day [4]: 98.44%; Purity by HPLC, 92.5% RH 30 days [4]: 98.05%
6 | Nc1ncnc2c1c(-c1ccc(Oc3ccccc3)cc1)nn2C1CCN(C2CN(C3CN(c4ccc5c(c4)C(=O)N(C4CCC(=O)NC4=O)C5=O)C3)C2)CC1.O=C(O)C(O)C(O)C(=O)O [Compound 7, 5-[3-[3-[4-[4-amino-3-(4-phenoxyphenyl)pyrazolo[3,4-d]pyrimidin-1-yl]-1-piperidyl]azetidin-1-yl]azetidin-1-yl]-2-(2,6-dioxo-3-piperidyl)isoindoline-1,3-dione L-tartrate] | more than 15 times | 143 µg/mL | Yes | more than 2 times | 95.5 ± 65 ng·h/mL | – | –
7 | Nc1ncnc2c1c(-c1ccc(Oc3ccccc3)cc1)nn2C1CCN(C2CN(C3CN(c4ccc5c(c4)C(=O)N(C4CCC(=O)NC4=O)C5=O)C3)C2)CC1 (stereo not shown) [amorphous form of compound 1, 5-[3-[3-[4-[4-amino-3-(4-phenoxyphenyl)pyrazolo[3,4-d]pyrimidin-1-yl]-1-piperidyl]azetidin-1-yl]azetidin-1-yl]-2-(2,6-dioxo-3-piperidyl)isoindoline-1,3-dione] | – | 9 µg/mL (≈ 12 µM) | Yes | – | 26.9 ± 3.3 ng·h/mL | relatively good chemical stability | stability of crystal form [5]: relatively good stability; Purity by HPLC, 0 day [4, 6]: 98.88%; Purity by HPLC, 92.5% RH 30 days [4, 6]: 98.82%; Purity by HPLC, 40° C. 30 days [4, 6]: 98.85%
8 | Nc1ncnc2c1c(-c1ccc(Oc3ccccc3)cc1)nn2C1CCN(C2CN(C3CN(c4ccc5c(c4)C(=O)N(C4CCC(=O)NC4=O)C5=O)C3)C2)CC1.O=C(O)/C=C\C(=O)O.O=C(O)/C=C\C(=O)O (stereo not shown) [amorphous form of compound 3, 5-[3-[3-[4-[4-amino-3-(4-phenoxyphenyl)pyrazolo[3,4-d]pyrimidin-1-yl]-1-piperidyl]azetidin-1-yl]azetidin-1-yl]-2-(2,6-dioxo-3-piperidyl)isoindoline-1,3-dione dimaleate] | – | – | – | – | – | – | stability of crystal form [5]: relatively good stability
9 | Nc1ncnc2c1c(-c1ccc(Oc3ccccc3)cc1)nn2C1CCN(C2CN(C3CN(c4ccc5c(c4)C(=O)N(C4CCC(=O)NC4=O)C5=O)C3)C2)CC1 (stereo not shown) [crystal form III of compound 1, 5-[3-[3-[4-[4-amino-3-(4-phenoxyphenyl)pyrazolo[3,4-d]pyrimidin-1-yl]-1-piperidyl]azetidin-1-yl]azetidin-1-yl]-2-(2,6-dioxo-3-piperidyl)isoindoline-1,3-dione] | – | – | – | – | – | – | relative stability of crystal forms from competition experiments [1]: most stable crystal form; Purity by HPLC, 0 day [4, 7]: 99.41%; Purity by HPLC, 92.5% RH 30 days [4, 7]: 99.30%; Purity by HPLC, 40° C. 30 days [4, 7]: 99.28%

The next lines start with results.

Row | improvement of solubility as compared with compound 1 [3] | solubility [3] | Having bioavailability or not [2] | increase of oral exposure amount as compared with compound 1 [2] | AUC(0-t) [2] | chemical stability [4] | Compound | also measured
10 | more than 15 times | 346 µg/mL | Yes | more than 2 times | 79.4 ± 20 ng·h/mL | relatively good chemical stability | Nc1ncnc2c1c(-c1ccc(Oc3ccccc3)cc1)nn2C1CCN(C2CN(C3CN(c4ccc5c(c4)C(=O)N(C4CCC(=O)NC4=O)C5=O)C3)C2)CC1.O=C(O)C(=O)O (stereo not shown) [Compound 9, 5-[3-[3-[4-[4-amino-3-(4-phenoxyphenyl)pyrazolo[3,4-d]pyrimidin-1-yl]-1-piperidyl]azetidin-1-yl]azetidin-1-yl]-2-(2,6-dioxo-3-piperidyl)isoindoline-1,3-dione oxalate] | Purity by HPLC, 0 day [4]: 98.67%; Purity by HPLC, 92.5% RH 30 days [4]: 98.28%
11 | more than 15 times | 172 µg/mL | Yes | more than 2 times | 75.1 ± 50 ng·h/mL | relatively good chemical stability | Nc1ncnc2c1c(-c1ccc(Oc3ccccc3)cc1)nn2C1CCN(C2CN(C3CN(c4ccc5c(c4)C(=O)N(C4CCC(=O)NC4=O)C5=O)C3)C2)CC1.O=C(O)/C=C\C(=O)O.O=C(O)/C=C\C(=O)O (stereo not shown) [crystal form I of compound 3, 5-[3-[3-[4-[4-amino-3-(4-phenoxyphenyl)pyrazolo[3,4-d]pyrimidin-1-yl]-1-piperidyl]azetidin-1-yl]azetidin-1-yl]-2-(2,6-dioxo-3-piperidyl)isoindoline-1,3-dione dimaleate] | relative stability of crystal forms from competition experiments [1]: most stable crystal form; Purity by HPLC, 0 day [4]: 99.85%; Purity by HPLC, 92.5% RH 30 days [4]: 99.76%; Purity by HPLC, 40° C. 30 days [4]: 99.74%
